Experimental data taken from US20260137662A1, “CD11B AGONISTS FOR TREATMENT OF AUTOIMMUNE DISEASE” (Rush University Medical Center, priority 2022, published 2026).
Entries after “also recorded” stand apart in the source; their conditions may differ.

Columns and labels:
[1] = tested on: humanized mouse model of SLE (SLE-NSG mice); experiment: Humanized SLE mouse model (NSG mice engrafted with SLE patient PBMCs); format: in vivo
Procedure: NSG mice engrafted with healthy control or SLE PBMCs were subsequently treated with LA1 or vehicle and human dsDNA levels were measured after 4 weeks of treatment. Each dot represents a unique sample. Bars show mean +/−SEM (n=3-6).
NSG mice engrafted with healthy control or SLE PBMCs were subsequently treated with LA1 or vehicle and suPAR levels were measured after 4 weeks of treatment. Each dot represents a unique sample. Bars show mean +/−SEM (n=3-6). […]
NSG mice engrafted with healthy control or SLE PBMCs were subsequently treated with LA1 or vehicle and ACR was measured after 4 weeks of treatment. Each dot represents a unique sample. Bars show mean +/−SEM (n=3-6).
FIG. 14A illustrates alopecia in control mouse models (Ctrl), mice engrafted with heathy PBMCs (HC), humanized SLE models treated with vehicle (Veh), and humanized SLE models treated with LA1. […]
The efficacy of CD11b agonist LA1 as a therapeutic was studied using a generated humanized mouse model of SLE. To generate the humanized SLE model, immunocompromised NSG mice engrafted with peripheral blood mononuclear cells (PBMCs) from either SLE patients or from healthy human donors (control). 2.5×10^6 purified PBMCs were injected intravenously into NSG mice on day 0. The humanized mice were monitored daily for significant clinical signs of SLE (alopecia, skin lesions, weight loss & arthritis), morbidity and mortality. Body weights were recorded weekly and skin lesions were photographed and scored weekly.
A small sample of peripheral blood was drawn from the mice under general anesthesia 2, 4 and 6 wks post-humanization by penetrating the retro-orbital sinus in mice with a sterile Pasteur pipette. The blood sample was split for fluorescence-activated cell sorting (FACS) analysis and serum preparation. […] For serum, the whole blood was clotted at room temperature for 30 minutes, followed by a 10-minute centrifugation at 10,000 RPM. The red blood cell-free serum was transferred into micro-centrifuge tubes and stored at −80° C. until further analysis. Additionally, urine samples were collected weekly, transferred into a micro-centrifuge tube and stored at −80° for future analysis. Urine protein was measured using a sandwich ELISA specific for mouse albumin (Bethyl Laboratories, TX) and urinary creatinine was determined using the Creatinine Companion kit (Exocell, PA) according to manufacturer's protocol.
To test the efficacy of LA1 on humanized SLE mouse models, the generated SLE-NSG mice were treated with LA1 (2 mg/kg i.p. daily) starting at two weeks post administration of PBMCs and until experiment completion. Concentrations of human dsDNA, mouse suPAR, and IFNb were measured in NSG mice, NSG mice engrafted with PBMCs from a healthy donor, untreated SLE-NSG mice, SLE-NSG mice treated with a vehicle, and SLE-NSG mice treated with LA1.

TLR4 mediated pathways = experiment: Relative gene expression in myeloid cells stimulated with LPS; format: cell-based; settings: LPS (50ng/ml) and LA1 (20 uM) co-treatment, 4 hour
Procedure: FIG. 4A illustrates the relative gene expression of biomarker IL-1bin myeloid cells after 4 hour of treatment with vehicle DMSO (UT), LA1 (20 uM), LPS (50ng/ml), or LPS and LA1 co-treatment.
FIG. 4B illustrates the relative gene expression of biomarker IL-18 in myeloid cells after 4 hour of treatment with vehicle DMSO (UT), LA1 (20 uM), LPS (50ng/ml), or LPS and LA1 co-treatment.
FIG. 4C illustrates the relative gene expression of biomarker uPAR in myeloid cells after 4 hour of treatment with vehicle DMSO (UT), LA1 (20 uM), LPS (50ng/ml), or LPS and LA1 co-treatment.
FIG. 4D illustrates the relative gene expression of biomarker IL-6 in myeloid cells after 4 hour of treatment with vehicle DMSO (UT), LA1 (20 uM), LPS (50ng/ml), or LPS and LA1 co-treatment.
The impact of CD11b activation by LA1 on TLR4 mediated pathways was similarly assessed by stimulating myeloid cells with LPS, a known TLR4 stimulant, and co-treating with LA1.

[2] = LA1 2 mg/kg i.p. daily from two weeks post PBMCs, after 4 weeks of treatment, vs vehicle, 2 mg/kg
[3] = humanized SLE mice treated with LA1 vs vehicle

O=C(O)c1ccc(-c2ccc(/C=C3\SC(=S)N(Cc4ccccc4)C3=O)o2)cc1 [LA1, (Z)-4-(5-((3-benzyl-4-oxo-2-thioxothiazolidin-5-ylidene)methyl)furan-2-yl)benzoic acid]
concentration of IFNb in the serum [1, 2]: significantly reduced; also recorded: reduction
concentration of anti-double stranded DNA antibodies (human dsDNA) in the serum [1, 2]: significantly reduced; also recorded: reduction
concentration of suPAR in the serum [1, 2]: significantly reduced; also recorded: reduction
urinary albumin creatinine ratios (ACR) [1, 2]: significantly reduced; also recorded: reduction
alopecia (nose area) [1, 3]: significantly reduced; also recorded: reduces alopecia
number of GR1-positive, CD11b-positive cells in spleens [1, 3]: reduction in number
number of neutrophils infiltrating in the kidney (H&E staining) [1, 3]: reduction in number
expression of biomarker IL-1b (TLR4 mediated pathways): significantly decreased
expression of biomarker IL-6 (TLR4 mediated pathways): significantly decreased
expression of biomarker IL-18 (TLR4 mediated pathways): significantly decreased
expression of biomarker uPAR (TLR4 mediated pathways): significantly decreased
